Results on 14 compounds are retold here after patent publication US8318736B2, “HIV inhibiting 5,6-substituted pyrimidines” (Janssen R&D Ireland, priority 2006, dated 2012).

The subject of data set [1] is HIV strain IIIB (wild type). Kind of data set: microbe, parasite or virus in culture. The following applies: for EC50: Human immunodeficiency virus 1, IIIB, 72 h, read-out: IIIB pEC50 (-log EC50) (converted); for pSI (IIIB) (-log SI; SI = ratio of CC50 to EC50): strain IIIB, CC50 in mock-infected MT4 CMV-EGFP cells. Here is the method:
Compounds of the invention were tested for their potency against wild type virus and clinically isolated HIV strains harboring one or more mutations associated with resistance to reverse transcriptase inhibitors. Antiviral activity was evaluated using a cellular assay performed according to the following procedure.
The human T-cell line MT4 was engineered with Green Fluorescent Protein (GFP) and a HIV-specific promoter, HIV-1 long terminal repeat (LTR). This cell line, designated MT4 LTR-EGFP, can be used for the in vitro evaluation of anti-HIV activity of investigational compounds. In HIV-1 infected cells, the Tat protein is produced, which upregulates the LTR promotor and eventually leads to stimulation of the GFP reporter production, allowing to measure ongoing HIV-infection fluorometrically.
Analogously, MT4 cells were engineered with GFP and the constitutional cytomegalovirus (CMV) promotor. This cell line was designated MT4 CMV-EGFP, and can be used for the in vitro evaluation of cytotoxicity of investigational compounds. […] Cytotoxic investigational compounds reduce GFP levels of mock-infected MT4 CMV-EGFP cells.
The ratio of CC50 to EC50 is defined as the selectivity index (SI) and is an indication of the selectivity of the anti-HIV activity of the inhibitor. The ultimate monitoring of HIV-1 infection and cytotoxicity was done using a scanning microscope. […] Measurements were done before cell necrosis, which usually takes place about five days after infection, in particular measurements were performed three days after infection.
The columns IIIB, L100I, etc. in the table list the pEC50 (−log EC50) values against various strains IIIB, L100I, etc.; pSI lists the −log SI values.
Strain IIIB is wild type HIV strain.

Data set [2] relates to HIV strain MDR (L100I, K103N, Y181C, E138G, V1791, L2214F, V278V/I and A327A/V in HIV reverse transcriptase). Kind of data set: microbe, parasite or virus in culture. The class given is cell-based, HIV-1. The following applies: Human immunodeficiency virus 1, read-out: MDR pEC50 (-log EC50) (converted). An excerpt:
(§1) Image analysis allowed very sensitive detection of viral infection.
“MDR” refers to a strain that contains mutations L100I, K103N, Y181C, E138G, V1791, L2214F, V278V/I and A327A/V in HIV reverse transcriptase.

In another data set the test system is HIV strain L100I + K103N. The data set can be described thus: microbe, parasite or virus in culture. The class given is cell-based, HIV-1. The following applies: Human immunodeficiency virus 1, 72 h, read-out: L100I + K103N pEC50 (-log EC50) (converted).
Source text: as §1

The subject of data set [3] is HIV strain K103N + Y181C. The data set can be described thus: microbe, parasite or virus in culture. In kind it is cell-based, HIV-1. The following applies: Human immunodeficiency virus 1, 72 h, read-out: K103N + Y181C pEC50 (-log EC50) (converted).
Method: (§2) The ratio of CC50 to EC50 is defined as the selectivity index (SI) and is an indication of the selectivity of the anti-HIV activity of the inhibitor. The ultimate monitoring of HIV-1 infection and cytotoxicity was done using a scanning microscope. Image analysis allowed very sensitive detection of viral infection. Measurements were done before cell necrosis, which usually takes place about five days after infection, in particular measurements were performed three days after infection.
The subject of data set [4] is HIV strain K103N + Y181C (second column with this head). Kind of data set: microbe, parasite or virus in culture. The following applies: Human immunodeficiency virus 1, 72 h, read-out: K103N + Y181C pEC50 (-log EC50) (converted). In kind it is cell-based, HIV-1.
Method: as §2

The structures appear in SMILES notation. Where only a bound is given, the exact number is not on record here.

In the case of `COCc1nc(Nc2ccc(C#N)cc2)nc(Nc2c(C)cc(/C=C/C#N)cc2C)c1-c1cnccc1OC` [Compound 1], the melting point was 120 °C. In data set [1], the EC50 was 0.0129 µM and the “pSI (IIIB) (-log SI; SI = ratio of CC50 to EC50)” value is >3.28. In addition, the EC50 in data set [2] is 2.4 µM. The EC50 in the data set on HIV strain L100I + K103N was 0.0631 µM. In the data set with HIV strain K103N + Y181C [3], the EC50 is 0.0933 µM. For the same compound, the EC50 in the data set on HIV strain K103N + Y181C [4] was 0.0832 µM.

With `C=CC(O)c1c(COC)nc(Nc2ccc(C#N)cc2)nc1Nc1c(C)cc(/C=C/C#N)cc1C` (centres unmarked) [Compound 36], the EC50 in data set [1] is 0.00263 µM; in data set [2], 0.0661 µM; with HIV strain L100I + K103N it was 0.00347 µM; in the data set with HIV strain K103N + Y181C [3], 0.00871 µM; with HIV strain K103N + Y181C [4], 0.0126 µM. For the same compound, the “pSI (IIIB) (-log SI; SI = ratio of CC50 to EC50)” value in data set [1] was found to be 3.85.

`COCc1nc(Nc2ccc(C#N)cc2)nc(Nc2c(C)cc(/C=C/C#N)cc2C)c1-c1cccs1` [Compound 4] had a melting point of 130 °C. Moreover, in data set [1], the EC50 is 0.00457 µM and the “pSI (IIIB) (-log SI; SI = ratio of CC50 to EC50)” value was 3.73. The 50% effective concentration (EC50) in data set [2] is 0.138 µM. In addition, in the data set with HIV strain L100I + K103N, the EC50 was 0.0038 µM. Further, the EC50 in the data set on HIV strain K103N + Y181C [3] was 0.0155 µM. Further, the EC50 with HIV strain K103N + Y181C [4] is 0.0186 µM.

`COCc1nc(Nc2ccc(C#N)cc2)nc(Nc2c(C)cc(/C=C/C#N)cc2C)c1-c1cccnc1` [Compound 2] had a melting point of 216 °C. Moreover, in data set [1], the EC50 is 0.00302 µM and the “pSI (IIIB) (-log SI; SI = ratio of CC50 to EC50)” value was 3.65. The EC50 in data set [2] was 0.24 µM. Besides, the EC50 in the data set with HIV strain L100I + K103N was 0.00417 µM. Also, the EC50 in the data set with HIV strain K103N + Y181C [3] is 0.0214 µM. In the data set with HIV strain K103N + Y181C [4], the concentration for a half-maximal effect (EC50) was 0.0158 µM.

In turn, `C=C(OCC)c1c(COC)nc(Nc2ccc(C#N)cc2)nc1Nc1ccc(/C=C/C#N)cc1` gave a melting point of 102 °C.

With `COCc1nc(Nc2ccc(C#N)cc2)nc(Nc2ccc(/C=C/C#N)cc2)c1/C=C/c1ccc(OC)cc1`, the melting point was found to be 207 °C.

With `COCc1nc(Nc2ccc(C#N)cc2)nc(Nc2c(C)cc(/C=C/C#N)cc2C)c1-c1ccco1` [Compound 6], the melting point worked out at 105 °C. In data set [1], the EC50 was 0.00363 µM and the “pSI (IIIB) (-log SI; SI = ratio of CC50 to EC50)” value stood at 3.61. Further, the EC50 in data set [2] is 0.0891 µM. The EC50 in the data set on HIV strain L100I + K103N was 0.00363 µM. The EC50 in the data set with HIV strain K103N + Y181C [3] was 0.0166 µM. Moreover, in the data set with HIV strain K103N + Y181C [4], the EC50 is 0.0174 µM.

As for `COCc1nc(Nc2ccc(C#N)cc2)nc(Nc2ccc(/C=C/C#N)cc2)c1C#Cc1cccnc1`, the melting point came out at 210 °C.

For the compound `COCc1nc(Nc2ccc(C#N)cc2)nc(Nc2c(C)cc(/C=C/C#N)cc2C)c1C(C)O` (centres unmarked) [Compound 37], the EC50 in data set [1] is 0.00145 µM; in data set [2], 0.105 µM; with HIV strain L100I + K103N, 0.00245 µM; in the data set with HIV strain K103N + Y181C [3], 0.00603 µM; in the data set with HIV strain K103N + Y181C [4], 0.0115 µM. Moreover, the “pSI (IIIB) (-log SI; SI = ratio of CC50 to EC50)” value in data set [1] worked out at 3.95.

As to `COCc1nc(Nc2ccc(C#N)cc2)nc(Nc2c(C)cc(/C=C/C#N)cc2C)c1C(O)c1nccs1` (centres unmarked) [Compound 38], the concentration giving a half-maximal response (EC50) is 0.00269 µM in data set [1]; 0.174 µM in data set [2]; 0.00372 µM in the data set on HIV strain L100I + K103N; 0.0123 µM with HIV strain K103N + Y181C [3]; 0.012 µM in the data set on HIV strain K103N + Y181C [4]. For the same compound, the “pSI (IIIB) (-log SI; SI = ratio of CC50 to EC50)” value in data set [1] is 3.81.

In turn, `COCc1nc(Nc2ccc(C#N)cc2)nc(Nc2c(C)cc(/C=C/C#N)cc2C)c1-c1ccsc1` [Compound 5] registered a melting point of 125 °C. In data set [1], the EC50 is 0.00437 µM and the “pSI (IIIB) (-log SI; SI = ratio of CC50 to EC50)” value is >3.76. Moreover, the EC50 in data set [2] was 0.324 µM. Also, the EC50 in the data set on HIV strain L100I + K103N was 0.00501 µM. Besides, the EC50 in the data set with HIV strain K103N + Y181C [3] was 0.0214 µM. Further, the EC50 with HIV strain K103N + Y181C [4] was 0.0251 µM.

Turning to `COCc1nc(Nc2ccc(C#N)cc2)nc(Nc2c(C)cc(/C=C/C#N)cc2C)c1-c1ccoc1` [Compound 7], the melting point came out at 122 °C. In addition, in data set [1], the EC50 is 0.00372 µM and the “pSI (IIIB) (-log SI; SI = ratio of CC50 to EC50)” value worked out at 3.75. In addition, in data set [2], the EC50 is 0.0912 µM. Moreover, the EC50 in the data set on HIV strain L100I + K103N was 0.0024 µM. The EC50 with HIV strain K103N + Y181C [3] is 0.0123 µM. The EC50 in the data set with HIV strain K103N + Y181C [4] is 0.0126 µM.

Take `COCc1nc(Nc2ccc(C#N)cc2)nc(Nc2c(C)cc(/C=C/C#N)cc2C)c1-c1ccncc1` [Compound 3]: the melting point amounted to 172 °C. In data set [1], the EC50 is 0.00331 µM and the “pSI (IIIB) (-log SI; SI = ratio of CC50 to EC50)” value is >3.88. Besides, in data set [2], the EC50 was 0.355 µM. Also, in the data set on HIV strain L100I + K103N, the EC50 is 0.00933 µM. The EC50 in the data set on HIV strain K103N + Y181C [3] was 0.0295 µM. Further, in the data set with HIV strain K103N + Y181C [4], the EC50 is 0.0224 µM.

Compound `COCc1nc(Nc2ccc(C#N)cc2)nc(Nc2ccc(/C=C/C#N)cc2)c1/C=C/c1ccc(C)cc1` had a melting point of 139 °C.

Usually EC50 stands for the concentration at which the effect is half-maximal. One may read the melting point as the temperature of the solid-liquid transition.
